{"source": "patent US12396996B2", "about": "“Compounds, pharmaceutical compositions, and methods of their use in reversing cancer chemoresistance” (priority 2019, dated 2025)", "type_in_all_cases": "cell-based, human", "key": {"HMLE-SNAIL spheroids": {"test_system": "HMLE-SNAIL spheroids", "assay": "3-D tumor spheroid assay (Sytox/DAPI staining)", "conditions": "Sytox staining", "excerpt": "FIGS. 1F-1I show the results of a 3-D tumor spheroid assay formed by the chemotherapy-resistant breast cancer cell line, HMLE-SNAIL. […] Tumor spheroids are a model of real in vivo tumors, as they form a 3-D cell mass in which the hypoxic and often nutrient depleted microenvironment at the center of the tumor is enriched with mesenchymal, chemotherapy-resistant TIC cells. […] By staining spheroids with Sytox, which stains dead cells green, and DAPI, which stains the nuclei of all cells (living or dead), total fraction of dead cells is calculated. Also, the location of dead cells within the sphere is visualized with Sytox (green) staining. The results of FIGS. 1F-1I indicate that chaetocin a selective and potent killer of inner cells of the spheroids, enriched with mesenchymal, chemotherapy-resistant TIC cells, compared to other compounds tested. FIGS. 1J-1K show the results of a tumorsphere assay performed with TICs grown on serum-free, non-adherent culture conditions. […] The results of FIGS. 1J-1K indicate that chaetocin is effective in eliminating TICs in a dose dependent-manner.\nTo determine whether chaetocin affects TIC death in a tumor-like environment, 3-D tumor spheroid assays were performed in the presence or absence of chaetocin. Tumor spheroids are a model of a real tumor, as they form a 3-D cell mass similar to tumors in vivo. The local microenvironment of a spheroid recapitulates many of the in vivo properties of tumor. Importantly, the hypoxic and often nutrient depleted microenvironment at the center of the tumor is favorable for converting epithelial, non-TIC, chemotherapy-sensitive cancer cells into mesenchymal, TIC-rich, chemotherapy-resistant cells. […] Pharmacological agents were added and cell viability was calculated by staining cells with Sytox, which stains dead cells green, and DAPI, which stains the nuclei of all cells (living or dead). to provide the total cell number. Using this method, the total fraction of dead cells was calculated and compared between different drug conditions. More importantly, the location of dead cells within the sphere is visualized with Sytox (green) staining. FIGS. 1G-1I show fluorescence images of tumor spheroids under control conditions (no treatment; FIG. 1G), under treatment with various experimental chemotherapeutic agents (Y-27632, LY-450139, and IWP-L6 (Wnt); FIG. 1H), and with chaetocin treatment (FIG. 1I). […] This family of kinases are thought to be important for survival of TIC cells. IWP-L6 is an inhibitor of Wnt pathway—a pathway important for TIC cell survival and formation. LY-450139 is a NOTCH pathway inhibitor. NOTCH is also important for TIC cell viability and survival. […]"}, "[1]": {"test_system": "H3K9me3 in HMLE-TWIST cells", "assay": "H3K9me3 chromatin immunoprecipitation and deep sequencing", "description": "FIG. 11 is a meta-plot depicting the H3K9me3 peaks in HMLE-TWIST cells treated (right graph) with 0.3 μM of chaetocin for 15 hours versus untreated cells (left graph). […] The decrease in red and yellow color and an increase in blue color is consistent with chaetocin-induced inhibition of Suv39H1 and Suv39H2 activities resulting in a decrease in H3K9me3 throughout the chaetocin-treated HMLE-TWIST cells.\nChaetocin is an inhibitor of Suv39H1 and Suv39H2 enzymes, whose catalytic activities trimethylates lysine 9 of histone H3. […] Consistent with our model, we find that genes involved in cell-cell adhesion (a strong marker for epithelial cells) display a specific loss of H3K9me3 in response to chaetocin treatment (Table 6). We also find that genes involved in neural differentiation also lose H3K9me3. […] Moreover, 60 genes display a simultaneous loss of H3K9me3 and an increase in their expression in chaetocin-treated cells (Table 7)."}, "HMLE-TWIST cells": {"test_system": "HMLE-TWIST cells", "assay": "RNA-seq after two days of chaetocin and two days after removal (Enrichr)", "conditions": "versus DMSO, cells found to have mycoplasma infection", "description": "Briefly, HMLE-TWIST cells were treated for two days with increasing doses of chaetocin (0.1, 0.15, 0.2, 0.5 uM). The cells were then washed and incubated for an additional 2 days in chaetocin-free media. Cells were collected before chaetocin treatment and at the 2-day and 4-day timepoints. Total RNA was extracted and subjected to deep sequencing. All chaetocin-treated transcriptomes were compared to cells treated with DMSO for 2 and 4 days which served as controls.\nUsing FACS (see FIGS. 3A-3X), it was shown that mesenchymal, TIC-rich HMLE-TWIST cells treated with increasing doses of chaetocin lose their mesenchymal properties. […] All transcriptomes were compared to the corresponding DMSO-treated controls.\nThe results for two representative chaetocin concentrations ([…]) are shown. Other concentrations produced a highly similar list of pathways. Only pathways whose enrichment is associated with an adjusted p value of less than 0.05 are indicated. Pathways listed in italicized font are those which have a known role in promoting the formation of the mesenchymal state in published literature. The pathways marked with an asterisk in tables above are those having known roles as tumor suppressors.\nThe results for two representative chaetocin concentrations ([…]) are shown. Other concentrations produced a highly similar list of pathways. […]"}, "HMLE-SNAIL cells": {"test_system": "HMLE-SNAIL cells", "assay": "CD44/CD24 FACS analysis", "conditions": "1 μM for two days", "excerpt": "The y- and the x-axes represent fluorescence intensity of CD24 and CD44 cell surface markers, respectively. In this cell line, high CD44 and low CD24 expression indicate TIC cell populations. Cells that express CD24 are considered non-TICs.\nCell surface markers can be used to identify mesenchymal, TIC cells. In breast cancer, the presence of CD44 and absence of CD24 markers are indicators of TICs. Specifically, cells expressing high levels of CD44 and no expression of CD24 are considered TICs, whereas cells expressing CD24 are considered non-TICs. HMLE cells display these cell surface markers upon overexpression of SNAIL or TWIST, which turns on the EMT transcriptional program and promotes a mesenchymal TIC state in cancer cells. To determine whether chaetocin treatment alters the mesenchymal phenotype of TICs, these markers were used to track the fate of HMLE-SNAIL cells following chaetocin treatment (1 μM) using fluorescence-activated cell sorting (FACS) analysis. FIGS. 3A-3B show a heat map plot of FACS results under control conditions (FIG. 3A) and following chaetocin treatment (FIG. 3B). The y-axis corresponds to CD24 fluorescence intensity and the x-axis corresponds to CD44 fluorescence intensity."}, "[2]": {"conditions": "0.3 uM for 15 hours, Gene Ontology Biological Process"}}, "data": [{"molecule": "CN1C(=O)[C@@]23C[C@]4([C@]56C[C@@]78SS[C@](CO)(C(=O)N7[C@H]5Nc5ccccc56)N(C)C8=O)c5ccccc5N[C@@H]4N2C(=O)[C@@]1(CO)SS3", "note": "[chaetocin]", "values": [{"measurement": "location of dead cells within spheroid", "setting": "HMLE-SNAIL spheroids", "value": "preferentially and effectively kills the inner spheroid cells"}, {"measurement": "change in H3K9me3 profile", "setting": "[1]; 0.3 μM for 15 hours versus untreated", "value": "specific loss of H3K9me3 over epithelial genes"}, {"measurement": "number of genes with simultaneous loss of H3K9me3 and increase in expression", "setting": "[1]; 0.3 μM for 15 hours, ChIP-seq with RNA-seq", "value": 60, "unit": "genes"}, {"measurement": "Fold Enrichment of cell-cell adhesion among genes which lose H3K9me3", "setting": "[1]; [2]", "value": 2.49}, {"measurement": "Fold Enrichment of neuron differentiation among genes which lose H3K9me3", "setting": "[1]; [2]", "value": 2.12}, {"measurement": "pathways changed after two days of treatment", "setting": "HMLE-TWIST cells; 0.1, 0.15, 0.2, 0.5 uM for two days", "value": "repression of several mesenchymal pathways and an increase in DNA repair and two important tumor suppressing pathways, p53 and Rb"}, {"measurement": "persistence of transcriptional changes", "setting": "HMLE-TWIST cells; 2 days after chaetocin removal", "value": "transcriptional changes persist after chaetocin removal"}, {"measurement": "CD44/CD24 phenotype (TIC to non-TIC)", "setting": "HMLE-SNAIL cells", "value": "reprograms TICs into a non-TIC phenotype"}]}]}
